Test results published in US20260097043A1, “NOVEL FORMULATIONS AND VEHICLES” (WisTa Laboratories Ltd., priority 2022, published 2026).

How the values were obtained:
[1] = Baddeley et al., 2015, cited from earlier work
TDP-43 = details: 0.05 μM MT; SH-SY5Y cells; Yamashita et al 2009; cited from earlier work
[2] = test system: huntingtin derivative containing a polyglutamine stretch of 102 residues; details: tested at 0, 10 and 100 μM; zebrafish; van Bebber et al. 2010; cited from earlier work
[3] = type: in vivo, human; details: 4 mg MTC approximately twice weekly; MCI to moderate AD
Description: Prior-filed PCT/EP2023/064369 (Example 3) describes the structure of a phase 3 clinical trial in mild to moderate AD in which different arms of participants were treated with MTC and LMTM respectively. This was a Phase 3, randomized, double-blind, outpatient trial to evaluate the safety, efficacy, and tolerability of LMTM in participants with severity ranging from mild cognitive impairment (MCI) to moderate AD. The MTC minipill was intended as a urinary discolourant placebo (in combination with a true placebo i.e. a blank minipill lacking any MTC or LMTM). […] Of patients receiving MTC 4 mg twice weekly, the majority (85%) were unexpectedly found to have blood levels of active drug above the threshold needed to produce a clinical effect.

[4] = 4 mg twice weekly; prior-filed PCT/EP2023/064369; cited from earlier work

CN(C)c1ccc2c(c1)Sc1cc(N(C)C)ccc1N2 [LMTM, leuco-methylthioninium bis(hydromethanesulfonate)]
pharmaceutic properties (solubility and pKa) [1]: superior pharmaceutic properties in terms of solubility and pKa
absorption limitations ([1]; compared with the MT+ form): not subject to the absorption limitations of the MT^+ form

CN(C)c1ccc2nc3ccc(N(C)C)cc3[s+]c2c1 [MT, N3,N3,N7,N7-tetramethylphenothiazin-5-ium-3,7-diamine]
reduction of the number of TDP-43 aggregates (TDP-43): 50%
formation of huntingtin polyglutamine aggregates [2]: prevented the formation of such aggregates in zebrafish in a dose dependent manner

CN(C)c1ccc2nc3ccc(N(C)C)cc3[s+]c2c1 [MTC, 3,7-bisdimethylaminophenazothionium chloride]
clinical benefit [3]: showed clinical benefit
therapeutic benefits in treating Alzheimer's disease [4]: showed therapeutic benefits
